Entries after “also recorded” stand apart in the source; their conditions may differ.
How the values were obtained:
[1] = system: recombinant SARS-CoV-2 S-RBD; assay: Phage display (PhD-12) panning against S-RBD; format: binding; settings: phage-displayed sequence, after panning against S-RBD
[2] = system: recombinant SARS-CoV-2 S-trimer proteins; assay: Phage display (PhD-12) panning against S-trimer; format: binding; settings: phage-displayed sequence, after panning against S-trimer
[3] = system: S-trimer-ACE2 binding, 293T-ACE2hR cells; format: cell-based, SARS-CoV-2 (S-trimer); human (hACE2); settings: for blocking of S-trimer binding onto 293T-ACE2hR cells, lower concentrations: 10 μM peptide and below, S-trimer 0.001 μM; for blocking of S-trimer binding onto 293T-ACE2hR cells, lower concentrations / blocking of S-trimer binding onto 293T-ACE2hR cells: premix 1 h, then 1 h on cells, room temperature, HRP anti-6X His tag, TMB, OD370 nm; for blocking of S-trimer binding onto 293T-ACE2hR cells: 50 μM peptide vs. 0.001 μM S-trimer (50,000-fold), p < 0.05 mark vs. vehicle, Student's t-test; for behaviour of C2 and C6 in the competition assay: Figure 3
[4] = system: S-trimer-ACE2 binding, recombinant ACE2 proteins; assay: Blocking of S-trimer binding onto recombinant ACE2 (ELISA); set-up: species or system SARS-CoV-2 (S-trimer); settings: ACE2 coated 5 μg/ml, S-trimer 0.01 μM premixed with 0.5, 1.65 and 5 μM peptide (up to 500:1)
Experimental: Then, 293T-ACE2hR cells were substituted by recombinant ACE2 proteins and coated onto ELISA plates in the other measurement setting. In brief, recombinant ACE2 proteins (Novoprotein) were immobilized overnight at room temperature on ELISA plates at a 5 μg/ml concentration in 0.1 M NaHCO3, pH 9.6. The plates were then blocked with 10% fetal calf serum for 2 h and washed with tris-buffered saline solution containing 0.1% Tween-20 [[…] (PBST) buffer]. […] The following procedures were described above for the 293T-ACE2hR cells setting.
FIGURE 3 The potential blocking effect of peptides on the binding of S-trimer onto cellular or soluble angiotensin-converting enzyme 2 (ACE2). […] The peptide SBP1 was used as a positive and peptide SBP2 as the negative control. *p < 0.05, vs. vehicle, all by Student’s t-test.

[5] = system: S-RBD proteins; set-up: method as in Zhang et al., 2020; settings: bio-layer interferometry; ref Zhang et al., 2020; cited from earlier work
[6] = system: cell surface S-RBD proteins; set-up: method as in Zhang et al., 2020; settings: ref Zhang et al., 2020; cited from earlier work
[7] = system: ACE2 binding onto S-RBD proteins; set-up: method as in Zhang et al., 2020; settings: ref Zhang et al., 2020; cited from earlier work

DHAQRYGAGHSG [C2]
enrichment by S-RBD [1]: enriched by S-RBD | enrichment by S-trimer [2]: only C2 was present in S-trimer selected phages | blocking of S-trimer binding onto 293T-ACE2hR cells, lower concentrations [3]: not at lower concentrations (10 μM and below) | blocking of S-trimer binding onto 293T-ACE2hR cells [3]: inhibited S-trimer binding onto 293T-ACE2hR cells at high concentrations (50 μM); also recorded: a blocking effect was observed for C2 and C6 | behaviour of C2 and C6 in the competition assay [3]: C2 and C6 behaved similarly in the competition assay | blocking of S-trimer binding onto recombinant ACE2 [4]: neither for the settings of S-trimer binding onto recombinant ACE2 proteins; also recorded: Failure of 500-fold overdose of C2 or C6 peptides to block S-trimers binding with their receptors

HWKAVNWLKPWT [C6]
enrichment by S-RBD [1]: enriched by S-RBD | blocking of S-trimer binding onto 293T-ACE2hR cells, lower concentrations [3]: not at lower concentrations (10 μM and below) | blocking of S-trimer binding onto 293T-ACE2hR cells [3]: inhibited S-trimer binding onto 293T-ACE2hR cells at high concentrations (50 μM); also recorded: a blocking effect was observed for C2 and C6 | behaviour of C2 and C6 in the competition assay [3]: C2 and C6 behaved similarly in the competition assay | blocking of S-trimer binding onto recombinant ACE2 [4]: neither for the settings of S-trimer binding onto recombinant ACE2 proteins; also recorded: Failure of 500-fold overdose of C2 or C6 peptides to block S-trimers binding with their receptors

IEEQAKTFLDKFNHEAEDLFYQSK [SBP1]
blocking of S-trimer binding onto 293T-ACE2hR cells [3]: still not for SBP1 or SBP2 peptides | association with S-RBD proteins [5]: at the level of micromolar scales | association with cell surface S-RBD proteins [6]: neither associated with cell surface S-RBD proteins | competition with ACE2 binding onto S-RBD [7]: nor did they outcompete ACE2 binding onto S-RBD proteins

TFLDKFNHEAED [SBP2, reference compound]
blocking of S-trimer binding onto 293T-ACE2hR cells [3]: still not for SBP1 or SBP2 peptides
